What all share (assay): NCI anticancer screen, dose series, 48 h
Experiment [1] has as its system SK-MEL-5 melanoma.
Experiment [2] relates to SK-MEL-2 melanoma.
Experiment [3] concerns HCT-116 colon.
Experiment [4] deals with CAKI-1 renal.
Experiment [5] relates to NCI-H522 lung.
For experiment [6], the system named is SK-MEL-28 melanoma.
The test system of experiment [7] is MDA-MB-231 breast.
For experiment [8], the system named is SK-OV-3 ovarian.
The subject of experiment [9] is COLO 205 colon.
For experiment [10], the system named is CCRF-CEM leukemia.

Each structure is given as a SMILES string.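 Where inhibition never reached the appropriate level, the endpoint shown equals the highest concentration tested. Otherwise, values were interpolated linearly from a five-concentration, 48-hour dose response in 96-well plates. GI50 marks 50% less growth. TGI: total growth inhibition.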 Where only a bound is given, the exact number is not on record here.

This is an account of results in PubChem BioAssay (NCI).

`c1cncc(CNCc2cccnc2)c1`: the TGI in [1], in [2], in experiment [3], in experiment [4], in experiment [5] and in experiment [6] was > 100 µM each time. Further, the TGI in [7], in [8], in [9] and in [10] was > 100 µM throughout.
On to `CC1=Cc2ccc(C)cc2C(=O)C1=O`, for which the TGI in experiment [1] amounted to 42.2 µM; in [2], 52.9 µM; in experiment [3], 10.8 µM; in [4] it was 36.3 µM; in experiment [5], 4.15 µM; in experiment [6], 52.9 µM. Moreover, the TGI in [7] came to 59.6 µM; in [8] it was 27 µM; in [9] it was 16.3 µM; in experiment [10], 1.98 µM.
`CN(C)CCSS(=O)(=O)O`: the TGI in [1], in [2], in experiment [3], in experiment [4], in experiment [5] and in [6] was > 100 µM throughout. The TGI in experiment [7], in experiment [8], in experiment [9] and in experiment [10] was > 100 µM each time.
Take `C=CC(=O)Nc1cc(N2CCN(CC)CC2)ccc1Nc1cc(N(C)C(=O)Nc2c(Cl)c(OC)cc(OC)c2Cl)ncn1`: the GI50 is 11.3 µM in experiment [1]; 13 µM in experiment [2]; 3.37 µM in experiment [3]; 11.1 µM in experiment [4]; 4.77 µM in experiment [5]; 2.03 µM in experiment [6]. The GI50 in experiment [7] was 3.26 µM; in [8], 12.3 µM; in experiment [9], 4.16 µM; in experiment [10], 3.02 µM. Moreover, the TGI in [1] came to 23.9 µM; in experiment [2], 27.3 µM; in [3], 14.2 µM; in [4], 23.1 µM; in [5], 20.3 µM; in [6], 4.53 µM. Also, the TGI in experiment [7] was determined as 11.5 µM; in experiment [8], 27.5 µM; in experiment [9] it was 18.3 µM; in [10] it was 11.2 µM.
On to `S=c1nc(N/N=C/c2ccco2)c2cn[nH]c2[nH]1`, for which the GI50 in experiment [1] was 28.2 µM; in experiment [2], > 100 µM; in experiment [3], 25 µM; in experiment [4], 52.9 µM; in experiment [5] it was 40.5 µM; in experiment [6] it was > 100 µM. Besides, the GI50 in [7] was > 100 µM; in experiment [8] it was 92.7 µM; in experiment [9], 29.5 µM; in experiment [10], 2.2 µM. Also, the TGI in experiment [1], in experiment [2], in [3], in [4], in experiment [5] and in [6] was > 100 µM throughout. For the same molecule, the TGI in [7] was > 100 µM; in [8] it was > 100 µM; in [9], 90.8 µM; in [10], > 100 µM.
As for `COc1cc(C)c(C2NC(=O)c3ccccc3N2)cc1C` (centres undefined), the TGI was 5.49 µM in [1]; 0.924 µM in experiment [2]; 43.1 µM in experiment [3]; 16.2 µM in experiment [4]; 0.713 µM in experiment [5]; > 100 µM in experiment [6]. Also, the values for the TGI in experiment [7], in experiment [9] and in [10] were > 85.7 µM, 4.64 µM and 18.1 µM, respectively.
`c1ccc2c(-c3nc(-c4c[nH]c5ccncc45)cs3)c[nH]c2c1`: the GI50 in experiment [1] was 1.6 µM; in experiment [2], 2.09 µM; in experiment [3], 1.71 µM; in experiment [4], 1.98 µM; in [5] it was 1.92 µM; in experiment [6], 1.84 µM. The GI50 in experiment [7] is 1.06 µM; in experiment [8], 2.62 µM; in experiment [10], 1.44 µM. Further, the TGI in [1] amounted to 2.99 µM; in [2] it was 3.95 µM; in experiment [3] it was 3.19 µM; in experiment [4], 5.74 µM; in [5], 3.92 µM; in experiment [6] it was 3.32 µM. Also, the TGI in [7] stood at 2.53 µM; in experiment [8], 8.29 µM; in [10] it was 3.52 µM.
`CC(C)(C)OC(=O)NCCCn1c2c(c3ccccc3c1=O)C(=O)c1ccccc1-2`: the GI50 in experiment [1] is 35.2 µM; in experiment [2] it was 49.3 µM; in [3], 4.71 µM; in experiment [4], 6.86 µM; in experiment [5], 42.4 µM; in [7], 12.9 µM. Moreover, the GI50 in experiment [8] is 25 µM; in experiment [9] it was > 100 µM; in experiment [10] it was > 100 µM. Besides, the TGI is > 100 µM in experiment [1]; > 100 µM in experiment [2]; 17.8 µM in experiment [3]; 22.2 µM in experiment [4]; > 100 µM in experiment [5]; 48.8 µM in experiment [7]. Also, the TGI in experiment [8], in experiment [9] and in experiment [10] was > 100 µM throughout.
In the case of `COC(=O)C1C(O)C(C)C(O)C(C)C=C(C)C2=C3C(=C(C)C(=O)c4c(O)c(c(C)c(OC(C)=O)c43)NC(=O)C(C)=C/C=C\C(C)C(O)C(C)C1O)OCO2` (centres undefined), the TGI was 39.4 µM in experiment [1]; 74.2 µM in experiment [2]; > 100 µM in experiment [3]; 39.4 µM in experiment [5]; 47.3 µM in experiment [6]; 77.6 µM in experiment [7]. The TGI is > 100 µM in experiment [8], 63.6 µM in experiment [9] and 67 µM in experiment [10].
As to `O=c1[nH]c2nc(NC3CCOCC3)ncc2cc1Oc1ccc(F)cc1F`, the GI50 in experiment [1], in [2], in [3], in [4], in experiment [5] and in experiment [6] was > 25 µM throughout. For the same molecule, the GI50 in [7], in [8] and in [9] was > 25 µM in each case. Further, the TGI in experiment [1], in experiment [2], in [3], in experiment [4], in experiment [5] and in [6] was > 25 µM in each case. Further, the TGI in [7], in [8] and in experiment [9] was > 25 µM throughout.
Take `C1CC2CN(CCCN3CCOCC3)C(C1)O2` (centres undefined): the TGI in experiment [1], in experiment [2], in experiment [3], in experiment [4], in experiment [5] and in experiment [6] was > 100 µM throughout. The TGI in experiment [7], in experiment [8] and in [9] was > 100 µM each time.
`Cc1ccc(S(=O)(=O)c2nc(-c3ccccc3)oc2S(C)=O)cc1` (centres undefined): the GI50 in [2] was 1.73 µM; in [3], 1.49 µM; in experiment [4], 1.5 µM; in [5] it was 1.12 µM; in experiment [6], 1.95 µM; in experiment [7], 1.47 µM. Further, the GI50 was 15.3 µM in experiment [8], 1.72 µM in [9] and 2.77 µM in experiment [10]. The TGI in experiment [2] was found to be 3.73 µM; in experiment [3], 2.89 µM; in [4], 2.84 µM; in [5], 2.59 µM; in experiment [6], 3.5 µM; in experiment [7], 2.87 µM. Further, the TGI was determined as 28.6 µM in experiment [8], 3.56 µM in experiment [9] and 8.08 µM in experiment [10].
Turning to `CCOc1c(N=Nc2ccccc2Cl)c(-c2ccccc2)nn1C(=S)S`, the TGI in [1] is 57.9 µM; in [2], > 100 µM; in experiment [3], > 100 µM; in experiment [4], 70.3 µM; in [5] it was 89.9 µM; in experiment [6], > 100 µM. For the same molecule, the results for the TGI in experiment [7], in [8] and in experiment [9] were 56.5 µM, > 100 µM and 47.5 µM, respectively.
Consider `COc1ncnc(S(=O)(=O)c2ccc(N=C3C(=O)N(CN4CCN(c5cc6c(cc5F)c(=O)c(C(=O)O)cn6C5CC5)CC4)c4ccc(Cl)cc43)cc2)c1OC`, for which the GI50 in experiment [1] was 19.7 µM; in experiment [2], > 50 µM; in experiment [3] it was 26.4 µM; in experiment [4], 12.7 µM; in experiment [5], > 50 µM; in experiment [6], > 50 µM. The GI50 in [7] was 28.5 µM; in experiment [9] it was > 50 µM. Moreover, the TGI in experiment [1], in experiment [2], in [3], in [4], in experiment [5] and in experiment [6] was > 50 µM each time. The TGI in experiment [7] and in experiment [9] was > 50 µM in each case.
In the case of `COc1cc2c(cc1OCCCCCCN1CCN(CC(=O)Nc3ccc(Cl)cc3C(=O)c3ccccc3Cl)CC1)N=CC1CCCN1C2=O` (centres undefined), the GI50 in experiment [1] is 0.513 µM; in experiment [2], 0.217 µM; in [3] it was 0.183 µM; in experiment [4], 0.151 µM; in experiment [5], 0.143 µM; in experiment [6], 0.185 µM. For the same molecule, the figures for the GI50 in experiment [7], in experiment [8] and in experiment [9] were 0.383 µM, 0.494 µM and 0.154 µM, respectively. In addition, the TGI was found to be 0.942 µM in experiment [1]; 0.556 µM in experiment [2]; 0.481 µM in [3]; 0.421 µM in experiment [4]; 0.322 µM in [5]; 0.332 µM in experiment [6]. Also, the TGI in experiment [7] came out at 1.07 µM; in experiment [8], 1.17 µM; in experiment [9] it was 0.314 µM.
In the case of `COc1cc2c(cc1OC)C(=O)/C(=C/c1cc(-c3ccc4c(c3)OCO4)n[nH]1)C2`, the GI50 in experiment [1] is 1.67 µM; in [3], 1.03 µM; in experiment [4] it was 1.5 µM; in experiment [5], 0.258 µM; in experiment [6], 1.89 µM; in experiment [7], 1.66 µM. Further, the GI50 was 2.89 µM in experiment [8], 1.7 µM in [9] and 1.14 µM in [10]. The TGI turned out to be 3.06 µM in experiment [1]; 2.55 µM in experiment [3]; 3 µM in experiment [4]; 0.871 µM in [5]; 3.4 µM in experiment [6]; 3.2 µM in experiment [7]. The values for the TGI in [8], in experiment [9] and in experiment [10] were 7.16 µM, 3.11 µM and 3.61 µM, respectively.
With `O=C(Nn1c(-c2ccccc2)nc2ccccc2c1=O)c1ccccc1O`, the TGI is 84.3 µM in experiment [1]; > 100 µM in experiment [3]; > 100 µM in experiment [5]; > 100 µM in [6]; > 100 µM in [7]; > 100 µM in [8]. Also, the TGI in [9] and in experiment [10] was > 100 µM throughout.
Take `C1CC[N-]CC1.CC(=N\O)/C(C)=N/O.CC(=N\O)/C(C)=N/O.OC1[CH-]CCCC1.[Co+2]`: the GI50 in experiment [1] is 34.6 µM; in experiment [2], 23.9 µM; in experiment [3] it was 30.3 µM; in [4] it was 34.7 µM; in experiment [5] it was 15.7 µM; in experiment [6] it was 32.5 µM. The GI50 was > 100 µM in experiment [7], > 100 µM in experiment [8] and 19 µM in [9]. Moreover, the TGI in [1] was > 100 µM; in experiment [2], 59.7 µM; in [3], > 100 µM; in experiment [4] it was > 100 µM; in experiment [5], 31 µM; in experiment [6] it was > 100 µM. Also, the TGI in [7] was > 100 µM; in experiment [8], > 100 µM; in experiment [9] it was 34.5 µM.
As for `Cc1nn2c(/C=C3/C(=O)Nc4cc(Cl)ccc43)c(-c3ccccc3)nc2s1`, the GI50 was 3.17 µM in experiment [1]; 7.07 µM in experiment [2]; 1.85 µM in experiment [3]; 1.87 µM in [4]; 1.8 µM in [5]; 1.99 µM in experiment [7]. The GI50 in experiment [8] was 14.3 µM; in experiment [9], 74.4 µM; in experiment [10] it was 4.35 µM. For the same molecule, the TGI in experiment [1] is > 100 µM; in experiment [2], 46.7 µM; in experiment [3], 3.46 µM; in experiment [4], 4.38 µM; in experiment [5], 4.11 µM; in [7], 5.62 µM. In addition, the TGI in experiment [8], in experiment [9] and in [10] was > 100 µM in each case.
